Consider 37 molecules from patent publication EP2975030B1, “DIHYDROPYRIDAZINE-3,5-DIONE DERIVATIVE” (Chugai Seiyaku Kabushiki Kaisha, priority 2013, dated 2014).

For the assay, the system named is rat small-intestinal brush border membrane vesicles. The experiment in a line: Inhibitory effect on 33PO4 uptake into rat small-intestinal brush border membrane vesicles (rapid filtration method). It is filed as biochemical, Wistar female rat. To be noted: 1 µM test compound; 33PO4 uptake into rat small-intestinal BBMVs, 60 seconds. The protocol:
The ^33PO4 transport activity of the small-intestinal BBMVs was determined by the rapid filtration method. […] Then, ice-cold buffer C (110 mM NaCl, 1 mM KH2PO4, and 10 mM HEPES (pH 7.5)) was added to each reaction mixture, which was immediately suction-filtered through a Millipore filter. The filter was washed with buffer C, and each sample was then dissolved in a liquid scintillator. The amount of ^33PO4 uptake into BBMVs was measured using a liquid scintillation counter. […]
As to `CN1[C@@H](C(C)(C)C)C(O)=C(C(=O)Nc2ccc(Cl)cc2-c2ccc(C(F)(F)F)nc2)C(=O)N1Cc1cccc(F)c1F` [Example 239], the “Rate of uptake inhibition (%) (1 µM)” value was determined as 48%.

Regarding `CC(=O)NCCN(C)CCOc1ccc(CN2C(=O)C(C(=O)Nc3ccc(C(F)(F)F)cc3-c3cc(C(F)(F)F)ncn3)=C(O)C3(CCC3)N2C)c(F)c1F` [Example 353], the “Rate of uptake inhibition (%) (1 µM)” value stood at 26%.

As for `COCCN1CC[C@@H](Oc2ccc(CN3C(=O)C(C(=O)Nc4ccc(C(F)(F)F)cc4-c4cc(C(F)(F)F)ncn4)=C(O)C4(CCC4)N3C)c(F)c2F)C1` [Example 405, 6-[[2,3-Difluoro-4-[(3R)-1-(2-methoxyethyl)pyrrolidin-3-yl]oxyphenyl]methyl]-9-hydroxy-5-methyl-7-oxo-N-[4-(trifluoromethyl)-2-[6-(trifluoromethyl)pyrimidin-4-yl)phenyl]-5,6-diazaspiro[3.5]non-8-ene-8-carboxamide], the “Rate of uptake inhibition (%) (1 µM)” value amounted to 30%.

For `CN1N(Cc2ccc(OCCCCCC(=O)O)c(F)c2F)C(=O)C(C(=O)Nc2ccc(C(F)(F)F)cc2-c2cc(C(F)(F)F)ncn2)=C(O)C12CCCC2` [Example 334], the “Rate of uptake inhibition (%) (1 µM)” value is 22%.

In the case of `CN(C)S(=O)(=O)c1ccc(-c2cc(C(F)(F)F)ccc2NC(=O)C2=C(O)[C@@]3(C)CCCN3N(Cc3cccc(F)c3F)C2=O)s1` [Example 71], the “Rate of uptake inhibition (%) (1 µM)” value is listed as 97%.

For `COC(C)(C)CN(C)CCOc1ccc(CN2C(=O)C(C(=O)Nc3ccc(C(F)(F)F)cc3-c3cc(C(F)(F)F)ncn3)=C(O)C3(CCC3)N2C)c(F)c1F` [Example 350], the “Rate of uptake inhibition (%) (1 µM)” value is 45%.

For the molecule `CN1[C@@H](C(C)(C)C)C(O)=C(C(=O)Nc2ccc(C(F)(F)F)cc2-c2ccnc(C#N)c2)C(=O)N1Cc1ccc(OCCN2CCOCC2)c(F)c1F` [Example 271], the “Rate of uptake inhibition (%) (1 µM)” value came out at 60%.

Regarding `CCOc1cccc(-c2cc(C(F)(F)F)ccc2NC(=O)C2=C(O)[C@@]3(C)CCCN3N(Cc3cccc(F)c3F)C2=O)c1OC` [Example 66], the “Rate of uptake inhibition (%) (1 µM)” value is given as 96%.

Turning to `CCCN(CCN(C)CCOC)c1ccc(CN2C(=O)C(C(=O)Nc3ccc(C(F)(F)F)cc3-c3cc(C(F)(F)F)ncn3)=C(O)C3(CCCC3)N2C)c(F)c1F` [Example 444], the “Rate of uptake inhibition (%) (1 µM)” value is listed as 24%.

For `CN1N(Cc2ccc(OCCCOC[C@H](O)CO)c(F)c2F)C(=O)C(C(=O)Nc2ccc(C(F)(F)F)cc2-c2ccc(C(F)(F)F)nc2)=C(O)C12CCC2` [Example 383, 6-[[4-[3-[(2R)-2,3-Dihydroxypropoxy]propoxy]-2,3-difluorophenyl]methyl]-9-hydroxy-5-methyl-7-oxo-N-[4-(trifluoromethyl)-2-[6-(trifluoromethyl)pyrydin-3-yl]phenyl]-5,6-diazaspiro[3.5]non-8-ene-8-carboxamide], the “Rate of uptake inhibition (%) (1 µM)” value was 126%.

As for `CN1[C@@H](C(C)(C)C)C(O)=C(C(=O)Nc2ccc(Cl)cc2-c2cc(C#N)ncn2)C(=O)N1Cc1ccc(OCCN2CCOCC2)c(F)c1F` [Example 272], the “Rate of uptake inhibition (%) (1 µM)” value is 43%.

Take `CCC1(CC)C(O)=C(C(=O)Nc2ccc(Cl)cc2-c2ccc(C(F)(F)F)nc2)C(=O)N(Cc2ccc(OCCN3CCOCC3)c(F)c2F)N1C` [Example 294]: the “Rate of uptake inhibition (%) (1 µM)” value turned out to be 40%.

As for `CN(C)S(=O)(=O)c1ccc(-c2nc(C(F)(F)F)ccc2NC(=O)C2=C(O)[C@@]3(C)CCCN3N(Cc3cccc(F)c3F)C2=O)cc1` [Example 87], the “Rate of uptake inhibition (%) (1 µM)” value amounted to 84%.

On to `CN1N(Cc2ccc(OCCCCCOCCO)c(F)c2F)C(=O)C(C(=O)Nc2ccc(C(F)(F)F)cc2-c2cc(C(F)(F)F)ncn2)=C(O)C12CCCC2` [Example 397], for which the “Rate of uptake inhibition (%) (1 µM)” value stood at 40%.

For the molecule `CC(C)[C@H]1C(O)=C(C(=O)Nc2ccc(Cl)cc2-c2ccc(C(F)(F)F)nc2)C(=O)N(Cc2ccc(OCCN3CCOCC3)c(F)c2F)N1C` [Example 281], the “Rate of uptake inhibition (%) (1 µM)” value came to 41%.

For `C[C@]12CCCN1N(Cc1c(F)cc(OCCCCCCOC[C@H](O)CO)cc1F)C(=O)C(C(=O)Nc1ccc(C(F)(F)F)cc1-c1ccc(C(F)(F)F)nc1)=C2O` [Example 155], the “Rate of uptake inhibition (%) (1 µM)” value was found to be 77%.

Regarding `CN1N(Cc2ccc(OCCN3CCOCC3)c(F)c2F)C(=O)C(C(=O)Nc2ccc(Cl)cc2-c2ccc(C(F)(F)F)nc2)=C(O)C12CCCC2` [Example 288], the “Rate of uptake inhibition (%) (1 µM)” value amounted to 61%.

Consider `CN1N(Cc2ccc(OCCN3CCOCC3)c(F)c2F)C(=O)C(C(=O)Nc2ccc(Br)c(C(F)(F)F)n2)=C(O)C12CCCCC2` [Example 298], for which the “Rate of uptake inhibition (%) (1 µM)” value came out at 10%.

Consider `C[C@]12CCCN1N(Cc1cccc(Cl)c1F)C(=O)C(C(=O)Nc1ccc(C(F)(F)F)cc1-c1ccc(C(F)(F)F)nc1)=C2O` [Example 198], for which the “Rate of uptake inhibition (%) (1 µM)” value was 75%.

For the molecule `CSc1ccc(-c2cc(C(F)(F)F)ccc2NC(=O)C2=C(O)[C@H](C(C)(C)C)N(C)N(Cc3ccc(OCCN4CCOCC4)c(F)c3F)C2=O)cn1` [Example 268], the “Rate of uptake inhibition (%) (1 µM)” value is recorded as 63%.

Turning to `CN1N(Cc2ccc(OCCN[C@@H](CC(=O)O)C(=O)O)c(F)c2F)C(=O)C(C(=O)Nc2ccc(C(F)(F)F)cc2-c2cc(C(F)(F)F)ncn2)=C(O)C12CCCC2` [Example 381, (2S)-2-[2-[2,3-Difluoro-4-[[10-hydroxy-6-methyl-8-oxo-9-[[4-(trifluoromethyl)-2-[6-(-trifluoromethyl)pyrimidin-4-yl]phenyl]carbamoyl]-6,7-diazaspiro[4.5]dec-9-en-7-yl]methyl]phenoxy]ethylamino]butanedioate], the “Rate of uptake inhibition (%) (1 µM)” value worked out at 28%.

Take `C[C@]12CCCN1N(Cc1cccc(F)c1F)C(=O)C(C(=O)Nc1ccc(Br)cc1)=C2O` [Example 77]: the “Rate of uptake inhibition (%) (1 µM)” value was found to be 80%.

Consider “(4aS)-1-[(2,3-Difluorophenyl)methyl]-6,6-difluoro-4-hydroxy-N-[5-methyl-2-(trifluoromethyl)furan-3-yl]-2-oxo-5,7-dihydro-4aH-pyrrolo[1,2-b]pyridazine-3-carboxamide [Example 5]”, for which the “Rate of uptake inhibition (%) (1 µM)” value was 54%.

As to `C[C@]12CCCN1N(Cc1cccc(Cl)c1)C(=O)C(C(=O)Nc1ccc(C(F)(F)F)cc1-c1ccc(C(F)(F)F)nc1)=C2O` [Example 169], the “Rate of uptake inhibition (%) (1 µM)” value was found to be 73%.

As to `CC(C)[C@H]1C(O)=C(C(=O)Nc2cc(F)c(Br)c(F)c2)C(=O)N(Cc2cccc(F)c2F)N1C` [Example 254], the “Rate of uptake inhibition (%) (1 µM)” value was 58%.

Take `COc1cccc(-c2cc(C(F)(F)F)ccc2NC(=O)C2=C(O)[C@@]3(C)CCCN3N(Cc3ccc(C#CCOCCOCCOCCO)c(F)c3F)C2=O)c1OC` [Example 136]: the “Rate of uptake inhibition (%) (1 µM)” value worked out at 80%.

As for `C[C@]12CCCN1N(Cc1cccc(F)c1F)C(=O)C(C(=O)Nc1ccc(C(F)(F)F)cc1-c1cncc(C(F)(F)F)c1)=C2O` [Example 91], the “Rate of uptake inhibition (%) (1 µM)” value amounted to 87%.

Regarding `Cc1ncc(-c2cc(C(F)(F)F)ccc2NC(=O)C2=C(O)[C@@]3(C)CCCN3N(Cc3cccc(F)c3F)C2=O)cc1C#N` [Example 109, (4aR)-N-[2-(5-Cyano-6-methylpyridin-3-yl)-4-(trifluoromethyl)phenyl]-1-[(2,3-difluorophenyl)methyl]-4-hydroxy-4a-methyl-2-oxo-6,7-dihydro-5H-pyrrolo[1,2-b]pyridazine-3-carboxamide], the “Rate of uptake inhibition (%) (1 µM)” value is 52%.

For `Cc1c(C#N)ncnc1-c1cc(C(F)(F)F)ccc1NC(=O)C1=C(O)C2(CCC2)N(C)N(Cc2ccc(OCCN3CCOCC3)c(F)c2F)C1=O` [Example 283], the “Rate of uptake inhibition (%) (1 µM)” value is recorded as 45%.

With `Cc1cc(NC(=O)C2=C(O)[C@@H]3CCCCN3N(Cc3c(F)c(F)cc4cc[nH]c34)C2=O)c(C(F)(F)F)o1` [Example 17, (4aS)-1-[(5,6-Difluoro-1H-indol-7-yl)methyl]-4-hvdroxy-N-[5-methyl-2-(trifluoromethyl)furan-3-yl]-2-oxo-5,6,7,8-tetrahydro-4aH-pyrido[1,2-b]pyridazine-3-carboxamide], the “Rate of uptake inhibition (%) (1 µM)” value turned out to be 33%.

On to `CSc1cc(-c2cc(C(F)(F)F)ccc2NC(=O)C2=C(O)[C@@]3(C)CCCN3N(Cc3cccc(F)c3F)C2=O)cnc1C#N` [Example 113], for which the “Rate of uptake inhibition (%) (1 µM)” value is 84%.

As to `CSc1ccc(-c2cc(C(F)(F)F)ccc2NC(=O)C2=C(O)C(C)(C)N(C)N(Cc3cccc(F)c3F)C2=O)cn1` [Example 310], the “Rate of uptake inhibition (%) (1 µM)” value amounted to 63%.

As for `CN1N(Cc2ccc(OCCCOC[C@H](O)CO)c(F)c2F)C(=O)C(C(=O)Nc2ccc(C(F)(F)F)cc2-c2cc(C(F)(F)F)ncn2)=C(O)C12CCCC2` [Example 392], the “Rate of uptake inhibition (%) (1 µM)” value was 47%.

For the molecule `CCOC(=O)CCCCCCN1C(=O)C(C(=O)Nc2ccc(C(F)(F)F)cc2-c2ccc(C(F)(F)F)nc2)=C(O)[C@@]2(C)CCCN12` [Example 235, Ethyl 7-[(4aR)-4-hydroxy-4a-methyl-2-oxo-3-[[4-(trifluoromethyl)-2-[6-(trifluoromethyl)pyridin-3-yl]phenyl]carbamoyl]-6,7-dihydro-5H-pyrrolo[1,2-b]pyridazin-1-yl]heptanoate], the “Rate of uptake inhibition (%) (1 µM)” value is listed as 65%.

For the molecule `CN1N(Cc2ccc(OCCn3cncn3)c(F)c2F)C(=O)C(C(=O)Nc2ccc(C(F)(F)F)cc2-c2cc(C(F)(F)F)ncn2)=C(O)C12CCC2` [Example 352], the “Rate of uptake inhibition (%) (1 µM)” value was 27%.

For the molecule `COc1cccc(-c2cc(C(F)(F)F)ccc2NC(=O)C2=C(O)[C@@]3(C)CCCN3N(Cc3ccc(C#CCOCCCCO)c(F)c3F)C2=O)c1OC` [Example 123, (4aR)-1-[[2,3-Difluoro-4-[3-(4-hydroxybutoxy)prop-1-ynil]phenyl]methyl]-N-[2-(2.3-dimethoxyphenyl)-4-(trifluoromethyl)phenyl]-4-hydroxy-4a-methyl-2-oxo-6,7-dihydro-5H-pyrrolo[1,2-b]pyridazine-3-carboxamide], the “Rate of uptake inhibition (%) (1 µM)” value is 87%.

Take `C[C@]12CCCN1N(Cc1cccc(Cl)c1)C(=O)C(C(=O)Nc1ccc(C(F)(F)F)cc1-c1cc(C(F)(F)F)ncn1)=C2O` [Example 181]: the “Rate of uptake inhibition (%) (1 µM)” value came out at 85%.
